Drawing on ChEMBL document CHEMBL3621204, “Dual biological functions of the apoptotic activity and anti-inflammatory effect by alcyonolide congeners from the Okinawan soft coral, Cespitularia sp” (Bioorg Med Chem Lett, 2015), this text covers inhibition, IC50 and Activity for three compounds.

Series [1] concerns RAW264.7. Briefly: Antiinflammatory activity in mouse RAW264.7 cells assessed as inhibition in LPS-stimulated nitric oxide production. It is filed as functional, cell-based.
Series [2] deals with HCT-116. Briefly: Cytotoxicity against human HCT116 cells. It is filed as functional, cell-based.
In series [3] the test system is HCT-116. Briefly: Induction of apoptosis in human HCT116 cells assessed as activation of caspase 3/7 at 2.5 to 20 uM after 2 hrs 30 mins by luciferase reporter assay. The format is functional, cell-based.
Series [4] deals with HCT-116. Briefly: Induction of apoptosis in human HCT116 cells assessed as nuclear condensation at 100 uM by fluorescence assay. The format is functional, cell-based.
In series [5] the test system is RAW264.7. Briefly: Cytotoxicity against LPS/IFN-gamma stimulated mouse RAW264.7 cells assessed as cell survival at 2 to 8 uM by MTT assay. The format is cell-based. Conditions: raw264.7, 8 µM. In general terms: Formazan colour is commonly taken as a measure of viable cells.
Series [6] relates to RAW264.7. Put plainly: Anti-inflammatory activity in mouse RAW264.7 cells assessed as inhibition of LPS/IFN-gamma-stimulated iNOS mRNA expression by RT-PCR analysis. It is filed as functional, cell-based.
Series [7] relates to RAW264.7. Briefly: Anti-inflammatory activity in mouse RAW264.7 cells assessed as inhibition of LPS/IFN-gamma-stimulated iNOS mRNA expression at 2 uM by RT-PCR analysis (reference value: 28.91 ng/uL). It is filed as functional.
Series [8] deals with RAW264.7. Briefly: Anti-inflammatory activity in mouse RAW264.7 cells assessed as inhibition of LPS/IFN-gamma-stimulated iNOS mRNA expression at 4 uM by RT-PCR analysis (reference value: 28.91 ng/uL). It is filed as functional.
Series [9] relates to RAW264.7. Put plainly: Anti-inflammatory activity in mouse RAW264.7 cells assessed as inhibition of LPS/IFN-gamma-stimulated iNOS mRNA expression at 8 uM by RT-PCR analysis (reference value: 28.91 ng/uL). It is filed as functional.
Series [10] relates to RAW264.7. Put plainly: Anti-inflammatory activity in mouse RAW264.7 cells assessed as inhibition of LPS/IFN-gamma-stimulated COX2 mRNA expression by RT-PCR analysis. It is filed as functional, cell-based.
Series [11] has as its system RAW264.7. Briefly: Anti-inflammatory activity in mouse RAW264.7 cells assessed as inhibition of LPS/IFN-gamma-stimulated COX2 mRNA expression at 2 uM by RT-PCR analysis (reference value: 54.51 ng/uL). The format is functional.
Series [12] deals with RAW264.7. Briefly: Anti-inflammatory activity in mouse RAW264.7 cells assessed as inhibition of LPS/IFN-gamma-stimulated COX2 mRNA expression at 4 uM by RT-PCR analysis (reference value: 54.51 ng/uL). The format is functional.
Series [13] deals with RAW264.7. Briefly: Anti-inflammatory activity in mouse RAW264.7 cells assessed as inhibition of LPS/IFN-gamma-stimulated COX2 mRNA expression at 8 uM by RT-PCR analysis (reference value: 54.51 ng/uL). It is filed as functional.

By IC50 is commonly meant the point on the concentration scale where inhibition reaches its midpoint. High values mean weaker potency in that assay, low ones greater potency in that assay.

Structures are written as SMILES. Calls of active or inactive are those of the source. The rule behind the calls is not given here.

As to `O=C1c2c(O)cc(O)cc2O[C@H](c2ccc(O)cc2)[C@H]1O`, the inhibition entry with RAW264.7 [1] was “Dose-dependent effect”.

For the compound `C=C(CCCC(C)=O)[C@@H]1[C@@H](OC(C)=O)OC=C2[C@H](CC=C(C)C)OC(=O)C[C@H]21`, the IC50 with HCT-116 [2] worked out at 5.85 µM. Further, the outcome in the series with HCT-116 [3] and in the series on HCT-116 [4] was Active. Further, the inhibition entry with RAW264.7 [1], with RAW264.7 [6] and in the series on RAW264.7 [10] was “Dose-dependent effect” in each case. The Activity result in the series on RAW264.7 [5] was “Non-toxic”; in the series on RAW264.7 [7], 24.62 ng/µL; in the series with RAW264.7 [8], 10.94 ng/µL; in the series with RAW264.7 [9] it was 8.25 ng/µL; with RAW264.7 [11], 37.36 ng/µL; in the series on RAW264.7 [12] it was 21.48 ng/µL. The Activity in the series on RAW264.7 [13] was determined as 13.75 ng/µL.

In turn, `C=CC(=C)[C@@H]1[C@@H](OC(C)=O)OC=C2[C@H](CC=C(C)C)OC(=O)C[C@H]21` returned an IC50 in the series with HCT-116 [2] of 6.04 µM. For the same compound, the result with HCT-116 [3] and in the series on HCT-116 [4] was Active. The inhibition entry in the series on RAW264.7 [1], in the series with RAW264.7 [6] and in the series on RAW264.7 [10] was “Dose-dependent effect” each time. Besides, the Activity result in the series with RAW264.7 [5] was “Non-toxic”; in the series with RAW264.7 [7], 20.66 ng/µL; in the series on RAW264.7 [8], 12.44 ng/µL; with RAW264.7 [9], 6.58 ng/µL; in the series with RAW264.7 [11], 37.1 ng/µL; with RAW264.7 [12] it was 31.77 ng/µL. Also, in the series on RAW264.7 [13], the Activity came out at 15.93 ng/µL.
